The source of these data is patent US10251394B2, “Molecules having pesticidal utility, and intermediates, compositions, and processes, related thereto” (Dow AgroSciences LLC, priority 2016, dated 2019).

Holding throughout (assay type): in vivo
The test system of assay [1] is Cabbage Looper (Trichoplusia ni). As to the kind of experiment: Bioassay on Cabbage Looper (CL), 128-well diet tray assay. As to conditions: Cabbage Looper, Table ABC, read-out: CL rating. The procedure, abridged: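 Second-instar larvae, one to five per well, placed on artificial diet surface-treated with 50 μg/cm^2 compound in acetone-water, eight wells per compound. Held 5-7 days at 25° C, 14:10 light-dark; percent mortality per well averaged across wells.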

Assay [2] relates to Yellow Fever Mosquito (Aedes aegypti). As to the kind of experiment: Bioassay on Yellow Fever Mosquito (YFM) larvae, 96-well plate. To be noted: Table ABC. The procedure, abridged:
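About 1-day-old larvae in water with liver powder were added to wells holding compound from a 4000 ppm DMSO master diluted in 90:10 water:acetone. Plates covered and kept at room temperature for 3 days, then each well scored for mortality on a rating scale.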

Assay [3] concerns Beet Armyworm (Spodoptera exigua). As to the kind of experiment: Bioassay on Beet Armyworm (BAW), 128-well diet tray assay. To be noted: Beet Armyworm, Table ABC, read-out: BAW rating. Summed up:
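Second-instar larvae (one to five per well) placed on artificial diet surface-treated with 50 μg/cm^2 test molecule in 90:10 acetone-water, dried, eight wells per molecule. Held at 25° C, 14:10 light-dark, five to seven days; percent mortality recorded per well and averaged across the eight wells.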

Take `CCc1ccc(C(/C=C(\F)c2ccc(C(=O)N[C@H](C)C(=O)NCC(F)(F)F)c(C(F)(F)F)c2)C(F)(F)F)cc1Cl` (stereo partly drawn) [F164, 4-((Z)-3-(3-Chloro-4-ethylphenyl)-1,4,4,4-tetrafluorobut-1-en-1-yl)-N—((R)-1-oxo-1-((2,2,2-trifluoroethyl)amino)propan-2-yl)-2-(trifluoromethyl)benzamide]: the pest or weed control at 50 µg/cm2 in assay [1] and in assay [3] was 50 to 100% throughout. Also, in assay [2], the YFM rating result is given as “B (More than 0-Less than 80)”.
With `O=C(NC1(C(=O)NCC(F)(F)F)CC1)c1ccc(/C(F)=C/C(c2cc(Br)c(Cl)c(Br)c2)C(F)(F)F)cc1C(F)(F)F` (stereo not drawn) [F45, (Z)-4-(3-(3,5-Dibromo-4-chlorophenyl)-1,4,4,4-tetrafluorobut-1-en-1-yl)-N-(1-((2,2,2-trifluoroethyl)carbamoyl)cyclopropyl)-2-(trifluoromethyl)benzamide], the pest or weed control at 50 µg/cm2 in assay [1] and in assay [3] was 50 to 100% each time. The YFM rating result in assay [2] is “A (80-100)”.
Regarding `C[C@@H](NC(=O)c1ccc(/C(F)=C/C(c2cc(Cl)c(Br)c(Cl)c2)C(F)(F)F)cc1C(F)(F)F)C(=O)N(C)CC(F)(F)F` (stereo partly drawn) [F76, 4-((Z)-3-(4-Bromo-3,5-dichlorophenyl)-1,4,4,4-tetrafluorobut-1-en-1-yl)-N—((R)-1-(methyl(2,2,2-trifluoroethyl)amino)-1-oxopropan-2-yl)-2-(trifluoromethyl)benzamide], the pest or weed control at 50 µg/cm2 in assay [1] and in assay [3] was 50 to 100% in each case. For the same molecule, the YFM rating entry in assay [2] was “A (80-100)”.
`CN(CC(F)(F)F)C(=O)C1(NC(=O)c2ccc(/C(F)=C/C(c3cc(Cl)cc(Br)c3)C(F)(F)F)cc2C(F)(F)F)CC1` (stereo not drawn) [PF33, (Z)-4-(3-(3-Bromo-5-chlorophenyl)-1,4,4,4-tetrafluorobut-1-en-1-yl)-N-(1-(methyl(2,2,2-trifluoroethyl)carbamoyl)cyclopropyl)-2-(trifluoromethyl)benzamide]: the pest or weed control at 50 µg/cm2 in assay [1] and in assay [3] was 50 to 100% throughout. Moreover, the YFM rating entry in assay [2] is given as “B (More than 0-Less than 80)”.
In the case of `O=C(CNC(=O)c1ccc(/C(F)=C/C(c2cc(F)c(F)c(Cl)c2)C(F)(F)F)cc1C(F)(F)F)NCC(F)(F)F` (stereo not drawn) [F153, (Z)-4-(3-(3-Chloro-4,5-difluorophenyl)-1,4,4,4-tetrafluorobut-1-en-1-yl)-N-(2-oxo-2-((2,2,2-trifluoroethyl)amino)ethyl)-2-(trifluoromethyl)benzamide], the pest or weed control at 50 µg/cm2 in assay [1] and in assay [3] was 50 to 100% in each case. In addition, the YFM rating result in assay [2] is “A (80-100)”.
As to `Cc1cc(C(/C=C(\F)c2ccc(C(=O)NCC(=O)NCC(F)(F)F)c(C(F)(F)F)c2)C(F)(F)F)cc(C)c1Cl` (stereo not drawn) [F71, (Z)-4-(3-(4-Chloro-3,5-dimethylphenyl)-1,4,4,4-tetrafluorobut-1-en-1-yl)-N-(2-oxo-2-((2,2,2-trifluoroethyl)amino)ethyl)-2-(trifluoromethyl)benzamide], the pest or weed control at 50 µg/cm2 in assay [1] and in assay [3] was 50 to 100% throughout. The YFM rating result in assay [2] is recorded as “B (More than 0-Less than 80)”.
As to `Cc1cc(C(/C=C(\F)c2ccc(C(=O)N[C@H](C)C(=O)NCC(F)(F)F)c(C(F)(F)F)c2)C(F)(F)F)cc(Cl)c1Cl` (stereo partly drawn) [PF13], the pest or weed control at 50 µg/cm2 in assay [1] and in assay [3] was 50 to 100% throughout. In addition, in assay [2], the YFM rating result is recorded as “B (More than 0-Less than 80)”.
For the molecule `C=Cc1c(Cl)cc(C(/C=C(\F)c2ccc(C(=O)NC3(C(=O)NCC(F)(F)F)CC3)c(C(F)(F)F)c2)C(F)(F)F)cc1Cl` (stereo not drawn) [F113, (Z)-4-(3-(3,5-Dichloro-4-vinylphenyl)-1,4,4,4-tetrafluorobut-1-en-1-yl)-N-(1-((2,2,2-trifluoroethyl)carbamoyl)cyclopropyl)-2-(trifluoromethyl)benzamide], the pest or weed control at 50 µg/cm2 in assay [1] and in assay [3] was 50 to 100% each time. Besides, in assay [2], the YFM rating entry is reported as “A (80-100)”.
Take `CN(CC(F)(F)F)C(=O)C1(NC(=O)c2ccc(/C(F)=C/C(c3cc(Cl)cc(Cl)c3)C(F)(F)F)cc2C(F)(F)F)CC1` (stereo not drawn) [F115, (Z)-4-(3-(3,5-Dichlorophenyl)-1,4,4,4-tetrafluorobut-1-en-1-yl)-N-(1-(methyl(2,2,2-trifluoroethyl)carbamoyl)cyclopropyl)-2-(trifluoromethyl)benzamide]: the pest or weed control at 50 µg/cm2 in assay [1] and in assay [3] was 50 to 100% in each case. Further, the YFM rating result in assay [2] is “B (More than 0-Less than 80)”.
For the molecule `C[C@@H](NC(=O)c1ccc(/C(F)=C/C(c2ccc(F)c(C(F)(F)F)c2)C(F)(F)F)cc1C(F)(F)F)C(=O)NCC(F)(F)F` (stereo partly drawn) [F141, N—((R)-1-Oxo-1-((2,2,2-trifluoroethyl)amino)propan-2-yl)-4-((Z)-1,4,4,4-tetrafluoro-3-(4-fluoro-3-(trifluoromethyl)phenyl)but-1-en-1-yl)-2-(trifluoromethyl)benzamide], the pest or weed control at 50 µg/cm2 in assay [1] and in assay [3] was 50 to 100% throughout. In addition, the YFM rating entry in assay [2] is reported as “A (80-100)”.
With `C[C@@H](NC(=O)c1ccc(/C(F)=C/C(c2ccc(C(F)(F)F)c(F)c2)C(F)(F)F)cc1C(F)(F)F)C(=O)NCC(F)(F)F` (stereo partly drawn) [F210], the pest or weed control at 50 µg/cm2 in assay [1] and in assay [3] was 50 to 100% each time. Moreover, in assay [2], the YFM rating entry is on record as “B (More than 0-Less than 80)”.
Regarding `C[C@@H](NC(=O)c1ccc(/C(F)=C/C(c2ccc(Cl)c(F)c2)C(F)(F)F)cc1C(F)(F)F)C(=O)NCC(F)(F)F` (stereo partly drawn) [PF19, 4-((Z)-3-(4-Chloro-3-fluorophenyl)-1,4,4,4-tetrafluorobut-1-en-1-yl)-N—((R)-1-oxo-1-((2,2,2-trifluoroethyl)amino)propan-2-yl)-2-(trifluoromethyl)benzamide], the pest or weed control at 50 µg/cm2 in assay [1] and in assay [3] was 50 to 100% each time. Also, the YFM rating entry in assay [2] is listed as “B (More than 0-Less than 80)”.
Take `C[C@@H](NC(=O)c1ccc(/C(F)=C/C(c2ccc(F)c(Cl)c2)C(F)(F)F)cc1C(F)(F)F)C(=O)N(C)CC(F)(F)F` (stereo partly drawn) [PF8, 4-((Z)-3-(3-Chloro-4-fluorophenyl)-1,4,4,4-tetrafluorobut-1-en-1-yl)-N—((R)-1-(methyl(2,2,2-trifluoroethyl)amino)-1-oxopropan-2-yl)-2-(trifluoromethyl)benzamide]: the pest or weed control at 50 µg/cm2 in assay [1] and in assay [3] was 50 to 100% in each case. Moreover, the YFM rating entry in assay [2] is reported as “B (More than 0-Less than 80)”.
Turning to `CN(CC(F)(F)F)C(=O)CNC(=O)c1ccc(/C(F)=C/C(c2cc(Cl)cc(Br)c2)C(F)(F)F)cc1C(F)(F)F` (stereo not drawn) [F137, (Z)-4-(3-(3-Bromo-5-chlorophenyl)-1,4,4,4-tetrafluorobut-1-en-1-yl)-N-(2-(methyl(2,2,2-trifluoroethyl)amino)-2-oxoethyl)-2-(trifluoromethyl)benzamide], the pest or weed control at 50 µg/cm2 in assay [1] and in assay [3] was 50 to 100% throughout. The YFM rating result in assay [2] is “B (More than 0-Less than 80)”.
Turning to `C[C@@H](NC(=O)c1ccc(/C(F)=C/C(c2cc(Cl)c(Br)c(Cl)c2)C(F)(F)F)cc1C(F)(F)F)C(=O)NCC(F)(F)F` (stereo partly drawn) [F59, 4-((Z)-3-(4-Bromo-3,5-dichlorophenyl)-1,4,4,4-tetrafluorobut-1-en-1-yl)-N—((R)-1-oxo-1-((2,2,2-trifluoroethyl)amino)propan-2-yl)-2-(trifluoromethyl)benzamide], the pest or weed control at 50 µg/cm2 in assay [1] and in assay [3] was 50 to 100% throughout. In addition, in assay [2], the YFM rating result was “A (80-100)”.
Take `Cc1cc(C(/C=C(\F)c2ccc(C(=O)N[C@H](C)C(=O)NCC(F)(F)F)c(C(F)(F)F)c2)C(F)(F)F)cc(C)c1Cl` (stereo partly drawn) [F69, 4-((Z)-3-(4-Chloro-3,5-dimethylphenyl)-1,4,4,4-tetrafluorobut-1-en-1-yl)-N—((R)-1-oxo-1-((2,2,2-trifluoroethyl)amino)propan-2-yl)-2-(trifluoromethyl)benzamide]: the pest or weed control at 50 µg/cm2 in assay [1] and in assay [3] was 50 to 100% in each case. For the same molecule, the YFM rating result in assay [2] is “A (80-100)”.
On to `O=C(NC1(C(=O)NCC(F)(F)F)CC1)c1ccc(/C(F)=C/C(c2ccc(F)c(Cl)c2)C(F)(F)F)cc1C(F)(F)F` (stereo not drawn) [F131, (Z)-4-(3-(3-Chloro-4-fluorophenyl)-1,4,4,4-tetrafluorobut-1-en-1-yl)-N-(1-((2,2,2-trifluoroethyl)carbamoyl)cyclopropyl)-2-(trifluoromethyl)benzamide], for which the pest or weed control at 50 µg/cm2 in assay [1] and in assay [3] was 50 to 100% in each case. Moreover, the YFM rating result in assay [2] is given as “A (80-100)”.
Consider `C[C@@H](NC(=O)c1ccc(/C(F)=C/C(c2cc(Br)c(Cl)c(Br)c2)C(F)(F)F)cc1C(F)(F)F)C(=O)NCC(F)(F)F` (stereo partly drawn) [F44, 4-((Z)-3-(3,5-Dibromo-4-chlorophenyl)-1,4,4,4-tetrafluorobut-1-en-1-yl)-N—((R)-1-oxo-1-((2,2,2-trifluoroethyl)amino)propan-2-yl)-2-(trifluoromethyl)benzamide], for which the pest or weed control at 50 µg/cm2 in assay [1] and in assay [3] was 50 to 100% in each case. The YFM rating entry in assay [2] is “A (80-100)”.
Turning to `C[C@@H](NC(=O)c1ccc(/C(F)=C/C(c2ccc(F)c(Cl)c2)C(F)(F)F)cc1C(F)(F)F)C(=O)NCC(F)(F)F` (stereo partly drawn) [F132, 4-((Z)-3-(3-Chloro-4-fluorophenyl)-1,4,4,4-tetrafluorobut-1-en-1-yl)-N—((R)-1-oxo-1-((2,2,2-trifluoroethyl)amino)propan-2-yl)-2-(trifluoromethyl)benzamide], the pest or weed control at 50 µg/cm2 in assay [1] and in assay [3] was 50 to 100% in each case. The YFM rating entry in assay [2] is given as “B (More than 0-Less than 80)”.
